This note sets out measurements from article PMC11640089, “JRM-28, a Novel HDAC2 Inhibitor, Upregulates Plasticity-Associated Proteins in Hippocampal Neurons and Enhances Morphological Plasticity via Activation of CREB: Implications for Alzheimer’s Disease” (Cells, 2024).

For assay [1], the target named is HDAC2 (Homo sapiens, UniProt Q92769). Briefly: HDAC2 inhibition assay, luminometric method (HDAC-Glo I/II). In kind it is biochemical. On the set-up: purchased BPS Bioscience 50002. The settings on record: HDAC2 0.5 nM, read-out: IC50 HDAC2 inhibition (luminescence). As to the method: HDAC2 inhibition assay was performed by either the luminometric or fluorimetric method applying the following procedures. The table (Table 1) represents the details of different HDAC proteins and antibodies used in all biochemical assays.
HDAC2 inhibition assay was performed by HDAC-Glo™ I/II Assays and Screening System (Catalog# G6420, Promega Corporation, Madison, WI, USA) by the luminometric method according to the manufacturer’s protocol. […] The HDAC-2 inhibition assay was performed as previously described to determine IC values. In brief, the purified HDAC2 was diluted in HDAC assay buffer (provided with the HDAC-Glo™ I/II Assays and Screening System) to the same concentration based on their calculated molar mass. […] Next, 10 µL of JRM-28 after serial dilution was added to 10 µL of diluted HDAC2 in such a way that the final HDAC2 concentration was 0.5 nM in each well of a 384-well microplate (Greiner, Kremsmünster, Austria). After 30 min of incubation, 20 µL of the HDAC-Glo substrate/developing reagent was added to each well according to the manufacturer’s instructions. The 384-well plate was then agitated on an orbital shaker for the mixing of components in each well for another 30 min at room temperature. Finally, luminescence was measured using a POLARstar Omega plate reader (BMG Labtech, Ortenberg, Germany).

In assay [2] the target is T1, HDAC6 (Homo sapiens, UniProt Q9UBN7).
T1 construct: purchased BPS Bioscience 50056
T1 sequence (Q9UBN7 1-1215): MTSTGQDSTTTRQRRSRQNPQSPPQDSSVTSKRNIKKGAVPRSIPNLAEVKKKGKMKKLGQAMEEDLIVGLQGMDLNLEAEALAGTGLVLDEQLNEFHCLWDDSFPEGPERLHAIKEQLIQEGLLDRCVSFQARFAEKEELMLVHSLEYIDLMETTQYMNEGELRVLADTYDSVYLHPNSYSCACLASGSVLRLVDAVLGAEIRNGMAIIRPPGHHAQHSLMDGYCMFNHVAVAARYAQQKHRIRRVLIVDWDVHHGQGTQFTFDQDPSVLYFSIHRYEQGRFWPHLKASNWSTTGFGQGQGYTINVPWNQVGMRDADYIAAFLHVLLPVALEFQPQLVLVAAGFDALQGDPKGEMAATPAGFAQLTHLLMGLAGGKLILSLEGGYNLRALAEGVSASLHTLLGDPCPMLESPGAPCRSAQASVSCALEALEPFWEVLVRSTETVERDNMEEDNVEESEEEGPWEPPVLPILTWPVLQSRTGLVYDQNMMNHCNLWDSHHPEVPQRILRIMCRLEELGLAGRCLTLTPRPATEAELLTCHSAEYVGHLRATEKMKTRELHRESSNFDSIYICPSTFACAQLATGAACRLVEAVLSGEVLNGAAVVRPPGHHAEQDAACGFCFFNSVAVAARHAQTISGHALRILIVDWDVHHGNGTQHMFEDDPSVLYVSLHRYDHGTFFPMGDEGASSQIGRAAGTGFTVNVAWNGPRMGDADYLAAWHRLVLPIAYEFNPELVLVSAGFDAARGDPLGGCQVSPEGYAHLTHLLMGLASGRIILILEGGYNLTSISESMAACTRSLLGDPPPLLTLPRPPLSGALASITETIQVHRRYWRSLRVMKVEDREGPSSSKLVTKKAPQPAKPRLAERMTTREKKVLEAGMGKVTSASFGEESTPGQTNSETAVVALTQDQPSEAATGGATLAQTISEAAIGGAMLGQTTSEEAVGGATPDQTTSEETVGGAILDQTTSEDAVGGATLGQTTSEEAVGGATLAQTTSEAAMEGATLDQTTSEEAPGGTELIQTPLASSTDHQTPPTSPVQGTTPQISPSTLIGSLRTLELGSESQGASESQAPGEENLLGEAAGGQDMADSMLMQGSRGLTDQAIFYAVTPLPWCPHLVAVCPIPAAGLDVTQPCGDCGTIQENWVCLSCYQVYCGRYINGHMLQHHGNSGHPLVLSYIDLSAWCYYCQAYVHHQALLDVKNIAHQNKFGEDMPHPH
Briefly: Fluorimetric HDAC inhibition assay, HDAC6. In kind it is biochemical. Conditions: reduced with DTT. As for the experimental part: The inhibition of HDAC1, 2, 3, and 6 by JRM-28 was fluorometrically measured using the HDAC Fluorogenic Assay Kit (Catalog# 50034) by BPS bioscience. Purified recombinant human HDAC1 (Cat# 50051), HDAC3 (Cat# 50003), and HDAC6 (Cat# 50056) were also obtained from BPS Bioscience. The enzyme inhibition assay was performed according to the manufacturer’s protocol. […] Purified recombinant HDAC2 (supplied with the fluorogenic kit) was diluted to 6 ng/µL (5 µL/well with the supplied HDAC assay buffer). HDAC 1, 3, and 6 were also diluted to the optimized concentration (5 µL/well) with the HDAC assay buffer. The activity of JRM-28 was measured along with DTT control and DMSO as blank. After adding 5 µL of the diluted HDAC enzymes in designated wells, the 96-well plate (supplied with the kit) was incubated at 37 °C. Then, the reaction was initiated by adding 5 µL of diluted HDAC substrate to each well, followed by another incubation at 37 °C for 30 min. Next, 50 µL of the developer reagent was added to each well and incubated at room temperature for another 15 min. Finally, fluorescence was measured by a microplate absorbance spectrophotometer (PerkinElmer Enspire 2300 Multilabel Multimode Microplate Reader) with an excitation at λ = 485 nm and detection at λ = 528 nm.

pIC50: −log10 of the molar value. Read-outs that look alike come from different tables or passages of the source.

HDAC2, sequence (Q92769 whole entry): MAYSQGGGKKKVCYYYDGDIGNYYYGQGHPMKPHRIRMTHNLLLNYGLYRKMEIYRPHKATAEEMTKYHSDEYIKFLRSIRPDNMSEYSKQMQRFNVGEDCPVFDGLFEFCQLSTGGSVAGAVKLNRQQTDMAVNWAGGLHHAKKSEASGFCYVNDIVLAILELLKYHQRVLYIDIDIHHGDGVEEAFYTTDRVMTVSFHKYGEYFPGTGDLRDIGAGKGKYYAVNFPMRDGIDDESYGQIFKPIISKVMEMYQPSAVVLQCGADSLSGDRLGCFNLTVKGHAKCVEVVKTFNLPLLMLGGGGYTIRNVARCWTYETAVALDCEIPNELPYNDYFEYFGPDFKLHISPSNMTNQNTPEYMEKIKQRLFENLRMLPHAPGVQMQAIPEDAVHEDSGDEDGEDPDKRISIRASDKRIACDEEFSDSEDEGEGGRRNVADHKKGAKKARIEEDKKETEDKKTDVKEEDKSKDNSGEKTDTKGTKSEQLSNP

In the case of `CN(C(=O)CC(O)/C=C/CCSSCC/C=C/C(O)CC(=O)N(C)c1ccccc1)c1ccccc1` (stereo not drawn) [JRM-20, (4E,4’E)-7,7’-disulfanediylbis(3-hydroxy-N-methyl-N-phenylhept-4-enamide)], in assay [1] (without DTT (non-reduced dimer)), the negative-log IC50 (pIC50) was 4.89.

Take `CN(C(=O)C[C@@H](O)/C=C/CCS(=O)O)c1ccccc1` [JRM-28a]: the “Hill coefficient HDAC6 (fluorimetric)” value in assay [2] is reported as −5.116.

With `CN(C(=O)C[C@@H](O)/C=C/CCS)c1ccccc1` [JRM-28b], the negative logarithm of the IC50 (pIC50) in assay [1] (in the presence of DTT (reduced)) was 5.57.
